Test results reported in patent publication US5698547A, “Cephalosporin antibiotics” (Microcide Pharmaceuticals, Inc., priority 1995, dated 1997).
Converted amounts (≈) assume the structure as drawn. Structures can show the parent of a compound that is named as a salt.

Columns and labels:
[1] = test system: S. aureus Col (Meth^R) (lac^-); experiment: MIC by agar dilution, S. aureus Col (Meth^R) (lac^-); assay type: cell-based; settings: Staphylococcus aureus; agar dilution; S. aureus Col (Meth^R) (lac^-); read-out: MIC
Procedure, shortened: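 Agar dilution per NCCLS (1991): two-fold dilutions from 128 μg/mL down to ≤0.25 μg/mL in Mueller-Hinton agar, each level in duplicate. Spots of about 10^4 cfu of log-phase culture; 16-20 h at 35°-36° C. MIC in μg/ml is the lowest concentration inhibiting growth.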

[2] = test system: methicillin-susceptible S. aureus strain ATCC 13709; experiment: murine model for lethal bacteremic peritonitis; assay type: in vivo, female Swiss-Webster mice; settings: subcutaneous, 72 h
Description: Groups of 5 female Swiss-Webster mice (Simonsen, Gilroy, Calif.) each are challenged by the intraperitoneal (IP) route with tenfold increments of a bacterial inoculum. This permits calculation of the mean lethal dose (LD50) and the LD100. For preliminary evaluation of a new antibiotic, mice are challenged IP with an LD100 titer of bacteria. In two equal doses administered at the time of bacterial challenge and 2 hours later, groups of 10 mice each are treated subcutaneously with two-fold increments of the test drug and an antibiotic of known efficacy in mice and humans (i.e., positive control). Mice are observed for 72 h. Those alive at 72 h are considered long term survivors. The total drug dose in mg/kg that protects 50% of mice in a group from death is termed the mean protective dose (PD50). PD50 s are similarly determined for several pathogens. The quantitative endpoints for the new drug are then compared with those obtained with reference antibiotics.
Six ten-fold dilutions of inoculum suspended in 0.5 mL of sterilized 7% hog gastric mucin (Sigma) are injected IP in groups of 5 mice each. A control group of 5 mice receive mucin alone. Mice are observed for 72 h. Those alive at 72 h are considered long term survivors. The mean lethal dose (LD50) and 100% lethal dose (LD100) are determined by the probit test.
For antibiotic efficacy studies, mice are challenged IP with bacterial titers that will afford an LD100 for the test strain. In two equal doses administered at the time of bacterial challenge and 2 hours later, groups of 10 mice each are treated by the subcutaneous route (SC) with twofold increments of the test antibiotic; another group is treated similarly with a reference antibiotic of known efficacy in animals and man. Drug doses can range from 0.01 to 512 mg/kg. If the drug is poorly soluble, Tween 20 or propylene glycol will be employed to solubilize the drug. Animals are observed for 72 h. The 50% protective dose (PD50) is calculated in mg/kg by the probit method. The PD50 is the same as the 50% effective dose (ED50) and the 50% curative dose (CD50). Samples of blood from the hearts of all animals that die and from half the mice that survive are cultured on brain-heart infusion agar. Animals that received a protective dosage of the test drug will be alive at 72 h, although they may appear moderately ill to very ill during the observation period. […] Most of these mice will die within 6 to 48 h. Those alive at 72 h will be considered long term survivors.
(Compound numbers correspond to those in MIC tables; data
reported for challenge with methicillin-susceptible S. aureus

SMILES	MIC [1]	Mortality ([2]; dose 0.3125 mg/kg)	Mortality ([2]; dose 0.625 mg/kg)	Mortality ([2]; dose 1.25 mg/kg)	Mortality ([2]; dose 2.5 mg/kg)	Mortality ([2]; dose 5 mg/kg)	Mortality ([2]; dose 0.1562 mg/kg)	Mortality ([2]; dose 2 mg/kg)	Mortality ([2]; dose 4 mg/kg)	Mortality ([2]; dose 8 mg/kg)	Mortality ([2]; dose 16 mg/kg)	Mortality ([2]; dose 10 mg/kg)	Mortality ([2]; dose 20 mg/kg)	Mortality ([2]; dose 40 mg/kg)
N#Cc1ncccc1SC1=C(C(=O)O)N2C(=O)[C@@H](NC(=O)Cc3ccccc3)[C@H]2SC1 [Cmpd 102, (7R)-7-[(Phenylacetyl)amino]-3-(2-cyanopyridin-3-ylthio)-3-cephem-4-carboxylic acid]	4 µg/mL (≈ 8.84 µM)	10/10	8/10	7/10	5/10	0/10								
CSCC(=O)N[C@@H]1C(=O)N2C(C(=O)O)=C(Sc3ccnn3-c3ccccc3)CS[C@H]12 [Cmpd 106, (7R)-7-[(methylthioacetyl)amino]-3-(1-N-phenylpyrazol-5-ylthio)-3-cephem-4-carboxylic acid]	1 µg/mL (≈ 2.16 µM)	9/10	6/10	2/10	1/10		9/10							
N#CCC(=O)N[C@@H]1C(=O)N2C(C(=O)O)=C(Sc3ccccc3I)CS[C@H]12 [Cmpd 17, (7R)-7-[(Cyanoacetyl)amino]-3-(o-iodophenylthio)-3-cephem-4-carboxylic acid]	2 µg/mL (≈ 3.99 µM)							8/10	5/10	0/10	0/10			
O=C(CC1CC1)N[C@@H]1C(=O)N2C(C(=O)O)=C(Sc3ccnn3-c3ccccc3)CS[C@H]12 [Cmpd 107, (7R)-7-[(cyclopropylacetyl)amino]-3-(1-N-phenylpyrazol-5-ylthio)-3-cephem-4-carboxylic acid]	4 µg/mL (≈ 8.76 µM)		8/10	6/10	5/10	0/10						0/10		
Cc1nnc(SCC(=O)N[C@@H]2C(=O)N3C(C(=O)O)=C(Sc4ccnn4-c4ccccc4)CS[C@H]23)s1 [Cmpd 118]	4 µg/mL (≈ 7.32 µM)		8/10	6/10	8/10	4/10						2/10		
O=C(O)C1=C(Sc2ccnn2-c2ccccc2)CS[C@@H]2[C@H](NC(=O)/C(=N\O)c3ccccc3)C(=O)N12 [Cmpd 130, (7R)-7-[(Z)-2-(Phenyl)-2-(hydroxyimino)acetamido]-3-(1-N-(phenyl)pyrazol-5-ylthio)-3-cephem-4-carboxylic acid]	2 µg/mL (≈ 3.83 µM)		10/10	7/10	9/10	6/10						6/10		
O=C(CSc1ccncc1)N[C@@H]1C(=O)N2C(C(=O)O)=C(Sc3ccnn3-c3ccccc3)CS[C@H]12 [Cmpd 110, (7R)-7-[(4-pyridylthioacetyl)amino]-3-(1-N-phenylpyrazol-5-ylthio)-3-cephem-4-carboxylic acid]	2 µg/mL (≈ 3.8 µM)		8/10	7/10	8/10	6/10						0/10		
O=C(CSc1ccccc1)N[C@@H]1C(=O)N2C(C(=O)O)=C(Sc3ccnn3-c3ccccc3)CS[C@H]12 [Cmpd 119, (7R)-7-[(phenylthioacetyl)amino]-3-(1-N-phenylpyrazol-5-ylthio)-3-cephem-4-carboxylic acid]	2 µg/mL (≈ 3.81 µM)	10/10	9/10	10/10	7/10	8/10								
CSCC(=O)N[C@@H]1C(=O)N2C(C(=O)O)=C(Sc3ccccc3CSC(=N)N)CS[C@H]12 [Cmpd 127, (7R)-7-[(methylthioacetyl)amino]-3-(2-isothiouroniummethylphenylthio)-3-cephem-4-carboxylate, inner salt]	4 µg/mL	6/10	5/10	4/10	2/10	1/10								
CC(C)N=C(NC(C)C)SCC(=O)N[C@@H]1C(=O)N2C(C(=O)O)=C(Sc3ccccc3CSC(=N)N)CS[C@H]12 [Cmpd 125, (7R)-7-[((N,N'-diisopropylisothiouronium)acetyl)amino]-3-(2-isothiouroniummethylphenylthio)-3-cephem-4-carboxylate, trifluoroacetic acid salt]	4 µg/mL		9/10	10/10	7/10	4/9						7/10		
N=C(N)SCc1ccccc1SC1=C(C(=O)O)N2C(=O)[C@@H](NC(=O)Cc3ccccc3CN)[C@H]2SC1 [Cmpd 101, (7R)-7-[((2-Aminomethylphenyl)acetyl)amino]-3-(2-isothiouroniummethylphenylthio)-3-cephem-4-carboxylate, trifluoroacetic acid salt]	4 µg/mL		5/10	2/10	0/10	0/10						0/10		
CO/N=C(\C(=O)N[C@@H]1C(=O)N2C(C(=O)O)=C(COC(C)=O)CS[C@H]12)c1csc(N)n1 [Cefotaxime, (7R)-3-Acetoxymethyl-7-[(Z)-2-(aminothiazol-4-yl)-2-(methoxyimino)acetamido]-3-cephem-4-carboxylic acid, reference compound]	> 32 µg/mL				8/10	5/10						3/10	4/10	1/10
O=C(Cc1ccccc1)N[C@@H]1C(=O)N2C(C(=O)O)=C(Sc3cccnc3-n3cccn3)CS[C@H]12 [Cmpd 103, (7R)-7-[(Phenylacetyl)amino]-3-(2-(pyrazol-1-yl)pyridin-3-ylthio)-3-cephem-4-carboxylic acid]	2 µg/mL (≈ 4.05 µM)		7/10	7/10	7/10	5/10						0/10		
CCC(CC)O/N=C(\C(=O)N[C@@H]1C(=O)N2C(C(=O)O)=C(Sc3ccnn3-c3ccccc3)CS[C@H]12)c1csc(N)n1 [Cmpd 104, (7R)-7-[(Z)-2-(aminothiazol-4-yl)-2-(3-pentyloxyimino)acetamido]-3-(1-N-phenylpyrazol-5-ylthio)-3-cephem-4-carboxylic acid]	2 µg/mL (≈ 3.26 µM)		6/10	10/10	8/10	8/10						9/10		
Nc1nc(/C(=N/OC2CCCC2)C(=O)N[C@@H]2C(=O)N3C(C(=O)O)=C(Sc4ccnn4-c4ccccc4)CS[C@H]23)cs1 [Cmpd 89, (7R)-7-[(Z)-2-(aminothiazol-4-yl)-2-(cyclopentyloxyimino)acetamido]-3-(1-N-phenylpyrazol-5-ylthio)-3-cephem-4-carboxylic acid]	2 µg/mL (≈ 3.27 µM)		9/10	9/10	9/10	8/10						8/10		
N=C(N)SCc1ccc(CC(=O)N[C@@H]2C(=O)N3C(C(=O)O)=C(Sc4ccccc4CSC(=N)N)CS[C@H]23)cc1 [Cmpd 97, (7R)-7-[((4-isothiouroniummethylphenyl)acetyl)amino]-3-(2-isothiouroniummethylphenylthio)-3-cephem-4-carboxylate, trifluoroacetic acid salt]	2 µg/mL	8/10	5/10	3/10	2/10	0/10								
N#CCSCC(=O)N[C@@H]1C(=O)N2C(C(=O)O)=C(Sc3ccnn3-c3ccccc3)CS[C@H]12 [Cmpd 122, (7R)-7-[(cyanomethylthioacetyl)amino]-3-(1-N-phenylpyrazol-5-ylthio)-3-cephem-4-carboxylic acid]	4 µg/mL (≈ 8.2 µM)		8/10	6/10	0/10	0/10						0/10		
